{"source": "patent US6929790B2", "about": "“Compositions to control oral microbial oxidation-reduction (Eh) levels” (priority 1996, dated 2005)", "key": {"[1]": {"tested_on": "mixed bacteria in salivary sediment", "assay": "Eh lowering by amino acids or salivary supernatant in the salivary sediment system", "conditions": "3 mM amino acid, 16.7% salivary sediment, 60 mM phosphate buffer, 37° C., up to 24 hours; for Lowest Eh reached, Group B: Group B (next lowest Eh); for Lowest Eh reached, Group A: Group A (highest Eh levels)", "source_text": "This model utilizes the mixed oral bacteria collected in the salivary sediment obtained from whole saliva by centrifugation. […] This model is recognized in the art as an effective proxy to study the microbial metabolic and related biochemical processes of the oral cavity.\n(§1) To collect salivary sediment and salivary supernatant for the assay, saliva stimulated by chewing paraffin wax was expectorated into test-tubes chilled in cracked ice. […] Following collection, the saliva was centrifuged at 1740×g for 15 minutes and the supernatant was subsequently removed by pipette and kept on ice until the assay was run. Next, the sediment was washed three times with ice cold distilled water to remove any residual salivary supernatant. The washed salivary sediment was chilled in crushed ice until the assay was run. Prior to incubating the samples and running the assay, the washed salivary sediment was re-suspended in distilled water to a final concentration of 50 percent (V/V).\nA control tube contained sediment and water.\n(§2) The oxidation-reduction potential (Eh) was determined in each incubation mixture using a platinum electrode and a potassium chloride salt bridge leading to a calomel reference electrode connected to a pH meter used as a millivoltmeter."}, "[2]": {"tested_on": "soft tissues of the oral cavity", "conditions": "cited from earlier work"}, "mixed oral bacteria": {"tested_on": "mixed oral bacteria", "assay": "Eh during incubation of salivary sediment and salivary supernatant with zinc chloride and/or hydrogen peroxide (Example II)", "conditions": "zinc chloride 6.0 mM (0.08%), hydrogen peroxide 0.5%, 37° C., 24 hours", "description": "as §1, §2\nA tube was prepared containing salivary sediment and salivary supernatant only (water control)."}, "oral bacteria [3]": {"tested_on": "oral bacteria", "assay": "In vivo cysteine rinse challenge, VSC (Halimeter) and tongue Eh before and after test rinse (Examples IV-VII)", "design": "species or system human subjects", "description": "The ability of a zinc chloride rinse solution to reduce or prevent the formation of volatile sulfur compounds (VSC) in vivo following successive challenges with a cysteine rinse was studied in this Example. The rinse solution consisted of zinc chloride at 6 mM (0.08%). […] The subject rinsed his/her mouth with 5 ml of a 6 mM cysteine solution for 30 seconds to stimulate substantial VSC production by the oral bacteria. […] Before and following the rinse, a Halimeter instrument was used to measure the volatile sulfur compounds (VSC) produced. Simultaneously, a platinum electrode was placed on the posterior dorsum surface of the tongue, just anterior to the circumvallate papillae to measure the Eh. After 20 minutes, the subject rinsed his/her mouth with 5 ml of the zinc chloride solution for 30 seconds. Again, the VSC of the subject's mouth air and the Eh were measured. The subject then rinsed successively with the 6 mM cysteine solution at 40, 60, 140, 320 and 380 minutes and the VSC and Eh of the subject's oral cavity were re-measured each time (see FIG. 5) using the Halimeter and the platinum electrode.\n(§3) As before, 5 ml of the zinc/peroxide/chloride ion composition of this invention was applied as a rinse for 30 seconds.\nas §3\nThe abilities of 0.1% sodium chlorite rinse solutions, one without and one with zinc chloride at 6 mM (0.08%) were compared in this Example for their abilities to reduce or prevent the formation of VSC in vivo following successive challenges with a cysteine rinse as before. The oral rinse consisted of application of 5 ml for 30 seconds of either an 0.1% sodium chlorite solution or an 0.1% sodium chlorite solution to which zinc chloride at 0.08% had been added."}, "[4]": {"conditions": "25° C.; cited from earlier work"}, "oral bacteria [5]": {"tested_on": "oral bacteria", "assay": "Zinc ion concentration versus rate of volatile sulfur compound production from cysteine (FIG. 1)", "assay_type": "cell-based", "conditions": "inhibition is exponential", "source_text": "Inhibition is exponential and occurs maximally once the zinc ion concentration reaches about 0.2%."}}, "data": [{"molecule": "N=C(N)NCCC[C@H](N)C(=O)O", "note": "[arginine]", "values": [{"measurement": "Lowest Eh reached, Group B", "setting": "[1]", "result": 25, "unit": "millivolts"}]}, {"molecule": "N[C@@H](CC(=O)O)C(=O)O", "note": "[aspartic]", "values": [{"measurement": "Lowest Eh reached, Group A", "setting": "[1]", "result": 80, "unit": "millivolts"}]}, {"molecule": "N[C@@H](CCC(=O)O)C(=O)O", "note": "[glutamic]", "values": [{"measurement": "Lowest Eh reached, Group B", "setting": "[1]", "result": 30, "unit": "millivolts"}]}, {"molecule": "OO", "note": "[hydrogen peroxide]", "values": [{"measurement": "Hydrogen peroxide concentration above which it can be harmful to the soft tissues of the oral cavity", "setting": "[2]", "result": "3.0 to 3.5", "unit": "%"}]}, {"molecule": "NCCCC[C@H](N)C(=O)O", "note": "[lysine]", "values": [{"measurement": "Lowest Eh reached, Group A", "setting": "[1]", "result": 95, "unit": "millivolts"}]}, {"molecule": "NCCC[C@H](N)C(=O)O", "note": "[ornithine]", "values": [{"measurement": "Lowest Eh reached, Group B", "setting": "[1]", "result": 55, "unit": "millivolts"}]}, {"molecule": "N[C@@H](Cc1ccccc1)C(=O)O", "note": "[phenylalanine]", "values": [{"measurement": "Lowest Eh reached, Group A", "setting": "[1]", "result": 100, "unit": "millivolts"}]}, {"molecule": "N[C@@H](Cc1ccc(O)cc1)C(=O)O", "note": "[tyrosine]", "values": [{"measurement": "Lowest Eh reached, Group B", "setting": "[1]", "result": 40, "unit": "millivolts"}]}, {"molecule": "[Cl-].[Cl-].[Zn+2]", "note": "[zinc chloride]", "values": [{"measurement": "Decrease in the Eh during incubation", "setting": "mixed oral bacteria", "result": "some decrease in the Eh"}, {"measurement": "Eh of the incubation mixture compared to salivary supernatant plus salivary sediment control", "setting": "mixed oral bacteria", "result": "significantly raised the Eh"}, {"measurement": "Time for which the VSC response to subsequent cysteine rinses was retarded", "setting": "oral bacteria [3]; Example IV, zinc chloride 6 mM (0.08%), 5 ml rinse for 30 seconds", "result": "about 5 hours"}, {"measurement": "VSC response to cysteine rinsing", "setting": "oral bacteria [3]; Example IV, zinc chloride 6 mM (0.08%), 5 ml rinse for 30 seconds, 6 mM cysteine challenges", "result": "reduced the ability of the oral bacteria to produce the VSC response to cysteine rinsing"}, {"measurement": "Eh during rinsing", "setting": "oral bacteria [3]; Example IV, zinc chloride 6 mM (0.08%), platinum electrode on tongue dorsum", "result": "raised to a small degree"}, {"measurement": "Solubility", "setting": "[4]", "result": "432 @ 25 °C g/100 cc"}]}, {"molecule": "[Zn+2]", "note": "[zinc ion]", "values": [{"measurement": "Zinc ion concentration at which inhibition of volatile sulfur compound production from cysteine is maximal", "setting": "oral bacteria [5]", "result": "about 0.2%"}]}, {"molecule": "sodium chlorite", "values": [{"measurement": "Inhibition of VSC production", "setting": "oral bacteria [3]; Example VII, 0.1% sodium chlorite solution, 5 ml for 30 seconds", "result": "no inhibition of VSC production"}]}]}
